Laboratory results taken from patent US20080248030A1, “Method of Treating Angiogenic Diseases” (Children's Medical Center Corporation, priority 2005, published 2008).

Legend:
BCE cells = experiment: Bovine capillary endothelial (BCE) cell proliferation assay; type: cell-based; settings: 10 pg/ml to 1 μg/ml TNP-470-equivalent concentration, 72 h
Description: For the proliferation assay, cells were washed with PBS and dispersed in a 0.05% trypsin solution. Cells were suspended (15,000 cells/ml) in DMEM supplemented with 10% BCS and 1% GPS, plated onto gelatinized 24-well culture plates (0.5 ml/well), and incubated for 24 h (37° C., 10% CO2). The media was replaced with 0.25 ml of DMEM, 5% BCS and 1% GPS and the test sample applied. Cells were challenged with free or conjugated TNP-470 (10 pg/ml to 1 μg/ml TNP-470-equivalent concentration). After 30 min of incubation, media and bFGF were added to obtain a final volume of 0.5 ml of DMEM, 5% BCS, 1% GPS and 1 ng/ml bFGF. Control cells were grown with or without bFGF. After 72 hr, cells were dispersed in trypsin, resuspended in Hematall (Fisher Scientific, Pittsburgh, Pa.), and counted in a Coulter counter.

VEGFR-2 = settings: recently shown; cited from earlier work
LLC = experiment: Antitumor activity on C57BL/6J mice bearing s.c. LLC; settings: 30 mg/kg q.o.d., data not shown
Early mouse development = settings: injected into 7 and 17 day-old BALB/c mice
Description: Free and conjugated TNP-470 were injected into 7 and 17 day-old BALB/c mice in order to test their effects on normal development.

chick aortic ring = experiment: Chick aortic ring endothelial sprouting assay; type: cell-based; settings: for effect on outgrowth: 100 pg/ml
Description: Aortic arches were dissected from day-14 chick embryos, cut into cross-sectional fragments, and implanted in vitro in Matrigel using a modification of methods previously described (V. Muthulckaruppan, personal communication). When cultured in MCDB-131 medium supplemented with 5% fetal bovine serum, endothelial cells sprouted and vascular channel formation occurred within 24-48 hours. Free or conjugated TNP-470 (10 pg/ml to 1 μg/ml) was added to the culture.

[1] = human, in vivo; cited from earlier work
human melanoma (A2058) = type: in vivo; settings: Caplostatin 30 mg/kg s.c. q.o.d; Avastin 1 mg/kg i.p. twice/week
Description: Combination treatment was also tested on mice bearing s.c. A2058 human melanoma, PC-3M-LN4 human prostate carcinoma or COLO-205 colon carcinoma or orthotopic intracranial U87-luciferase human glioblastoma.

[2] = test system: liver regeneration post hepatectomy; experiment: Hepatectomy model (liver regeneration); type: in vivo, C57BL/6J mice
Description: Male C57BL/6J mice underwent a partial hepatectomy through a midline incision after general anesthesia with isoflourane^33. Free or conjugated TNP-470 (30 mg/kg) were given s.c. every other day for 8 days beginning on the day of surgery according to the scheme described in FIG. 4a. Alternatively, the doses given were 60 mg/kg the day of surgery and 4 days later or 120 mg/kg once on the day of the partial hepatectomy. The liver was harvested on the 8th day, weighed and analyzed by histology.
This non-neoplastic model is a relatively fast (8 days) in vivo angiogenesis-dependent process^33. We employed the hepatectomy model to compare the endothelial cell inhibitory activity of free and conjugated TNP-470, because liver regeneration post hepatectomy is angiogenesis-dependent, similar to tumor growth^33,34.

A2058 human melanoma = experiment: Antitumor activity on SCID mice bearing s.c. A2058 human melanoma; type: in vivo; settings: summary in conclusions, tumor models not named
From the text: Each group consisted of 5 mice.

| Compound | inhibition of bFGF-induced proliferation (cytostatic effect) (BCE cells) | VEGFR-2 phosphorylation (VEGFR-2) | effect on outgrowth (chick aortic ring) | TIC (human melanoma (A2058)) | also measured |
| --- | --- | --- | --- | --- | --- |
| CO[C@@H]1[C@H](OC(=O)NC(=O)CCl)CC[C@]2(CO2)[C@H]1[C@@]1(C)O[C@@H]1CC=C(C)C [TNP-470] | inhibited bFGF-induced proliferation | inhibit VEGFR-2 phosphorylation | completely prevented outgrowth | – | induction of weight loss (LLC): did; effect on normal development (weight gain) (Early mouse development): inhibited growth, by inhibiting weight gain |
| COc1cccc2c1C(=O)c1c(O)c3c(c(O)c1C2=O)C[C@@](O)(C(=O)CO)C[C@@H]3O[C@H]1C[C@H](N)[C@H](O)[C@H](C)O1 [doxorubicin] | – | – | – | – | t1/2α (in words) [1]: few minutes |
| Avastin: recombinant humanized antibody to Vascular Endothelial Growth Factor (VEGF), Genentech | – | – | – | 0.47 | – |
| N-(2-lydroxypropyl)methacrylamide (HPMA) copolymer-TNP-470 conjugate [HPMA copolymer-TNP-470] | inhibited bFGF-induced proliferation | inhibit VEGFR-2 phosphorylation | completely prevented outgrowth | 029 | inhibition of liver regeneration ([2]; 60 mg/kg every four days): had an equivalent effect as the 30 mg/kg q.o.d. dosing schedule; inhibition of liver regeneration ([2]; single injection of 120 mg/kg at the day of hepatectomy): had an equivalent effect as the 30 mg/kg q.o.d. dosing schedule; T/C values for the conjugate (summary) (A2058 human melanoma): 0.12-0.14; effect on vascular sprouts (chick aortic ring; 50 pg/ml): reduced the number and length of vascular sprouts |
